This passage reports activity remaining, low choline and activity remaining, high choline results from PubChem BioAssay AID652215 (Vanderbilt Specialized Chemistry Center, 2013).

Activity calls are given as the source filed them.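 The calls were made as follows: active = activity score of 50 or more, meaning choline uptake cut by at least half versus untreated control; inactive = the rest.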

This assay concerns the target High affinity choline transporter 1 (Homo sapiens) (UniProt Q9GZV3). Kind of assay: choline transporter uptake block, single concentration – cell-based, HEK-293 hCHT LV-AA, [3H]-choline, mechanism study for choline transporter inhibitor project, SAR follow-up (AID 652215). The conditions noted are these: [3H]-choline uptake, 15 min, at 5 µM, stronger effect = lower value; for activity remaining, high choline: measured here: 10 uM choline uptake.

Chain of High affinity choline transporter 1 (Homo sapiens) (Q9GZV3 whole entry, looked up): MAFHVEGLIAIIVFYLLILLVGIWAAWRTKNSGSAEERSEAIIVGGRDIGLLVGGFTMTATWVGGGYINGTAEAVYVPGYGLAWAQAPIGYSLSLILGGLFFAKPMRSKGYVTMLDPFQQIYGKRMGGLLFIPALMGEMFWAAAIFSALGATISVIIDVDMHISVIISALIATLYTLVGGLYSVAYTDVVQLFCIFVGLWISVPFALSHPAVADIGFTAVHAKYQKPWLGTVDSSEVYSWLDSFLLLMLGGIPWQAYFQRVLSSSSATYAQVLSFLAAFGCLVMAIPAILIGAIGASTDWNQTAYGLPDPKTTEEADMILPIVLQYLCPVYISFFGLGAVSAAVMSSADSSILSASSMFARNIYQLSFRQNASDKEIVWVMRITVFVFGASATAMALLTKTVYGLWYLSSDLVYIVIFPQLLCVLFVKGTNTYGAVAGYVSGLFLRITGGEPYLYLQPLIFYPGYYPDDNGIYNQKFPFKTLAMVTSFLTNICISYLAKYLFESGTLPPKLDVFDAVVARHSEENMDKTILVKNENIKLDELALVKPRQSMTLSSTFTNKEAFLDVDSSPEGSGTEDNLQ

With `COc1ccc(C(=O)NCc2ccccc2C)cc1OC1CCN(C(C)C)CC1`, the activity remaining, low choline was 32.9% and the activity remaining, high choline came out at 64.8%.

With `COc1ccc(C(=O)NCC2CCOCC2)cc1OC1CCN(C(C)C)CC1`, the activity remaining, low choline is 80% (inactive) and the activity remaining, high choline worked out at 74.5%.

Regarding `COc1ccc(C(=O)NCCc2c[nH]c3ccccc23)cc1OC1CCN(C(C)C)CC1`, the activity remaining, low choline is 15.9% and the activity remaining, high choline was found to be 58%.

Take `COc1ccc(C(=O)NCc2cc(C(C)C)no2)cc1OCC1CCC1`: the activity remaining, low choline was 94.9% (inactive) and the activity remaining, high choline is 92.7%.

On to `COc1ccc(C(=O)NCc2cc(C(C)C)no2)cc1OCC1CCCCC1`, for which the activity remaining, low choline is 87.2% (inactive) and the activity remaining, high choline was 83%.

As to `COCCOc1cc(C(=O)NCc2cc(C(C)C)no2)ccc1OC`, the activity remaining, low choline was 86.8% (inactive) and the activity remaining, high choline was 84.5%.

For `COc1ccc(C(=O)NCc2ccc(Cl)s2)cc1OC1CCN(C(C)C)CC1`, the activity remaining, low choline was 35.3% and the activity remaining, high choline was determined as 81%.

Consider `CCc1cc(CNC(=O)c2ccc(OC)c(OC3CCNCC3)c2)on1`, for which the activity remaining, low choline is 62.2% (inactive) and the activity remaining, high choline was found to be 94.7%.

As to `COc1ccc(C(=O)NCC[C@@H]2C[C@@H]3C=C[C@H]2C3)cc1OC1CCN(C(C)C)CC1`, the activity remaining, low choline is 9.91% and the activity remaining, high choline amounted to 66.3%.

In the case of `CCc1cc(CNC(=O)c2ccc(OC)c(OC3CCN(C)CC3)c2)on1`, the activity remaining, low choline is 7.98% and the activity remaining, high choline stood at 56.4%.

Regarding `COc1ccc(C(=O)NCCc2ccncc2)cc1OC1CCN(C(C)C)CC1`, the activity remaining, low choline was 71.2% (inactive) and the activity remaining, high choline amounted to 82.8%.

With `COc1ccc(C(=O)NCc2cc(C(C)C)no2)cc1OCc1ccccn1`, the activity remaining, low choline is 87.2% (inactive) and the activity remaining, high choline came out at 100%.

Consider `COc1ccc(C(=O)NC(C)c2cn(C)nc2C)cc1OC1CCN(C(C)C)CC1` (configuration not stated), for which the activity remaining, low choline was 57.1% (inactive) and the activity remaining, high choline turned out to be 73.9%.

Turning to `COc1ccc(C(=O)NCCCn2ccnc2)cc1OC1CCN(C(C)C)CC1`, the activity remaining, low choline was 52.4% (inactive) and the activity remaining, high choline came out at 60.8%.

With `COc1ccc(C(=O)NCc2cc(C(C)C)no2)cc1OCc1cccnc1`, the activity remaining, low choline was 87.3% (inactive) and the activity remaining, high choline is 95.5%.

As for `CCc1cc(CNC(=O)c2ccc(OC)c(OCCOC)c2)on1`, the activity remaining, low choline was 89.1% (inactive) and the activity remaining, high choline was 80.6%.

Regarding `COc1ccc(C(=O)NCc2cc(C(C)C)no2)cc1OCc1ccncc1`, the activity remaining, low choline is 85.9% (inactive) and the activity remaining, high choline turned out to be 83.8%.

`COc1ccc(C(=O)NCc2cc(C(C)C)no2)cc1OC(C)C`: the activity remaining, low choline was 89.4% (inactive) and the activity remaining, high choline came to 99.8%.

For `CCc1cc(CNC(=O)c2ccc(OC)c(OCc3cccnc3)c2)on1`, the activity remaining, low choline is 94.5% (inactive) and the activity remaining, high choline amounted to 72%.

Take `COc1ccc(C(=O)NCc2cc(C(C)C)no2)cc1OCc1ccccc1`: the activity remaining, low choline was 90.8% (inactive) and the activity remaining, high choline came out at 97.2%.

For the compound `CCc1cc(CNC(=O)c2ccc(OC)c(OC(C)CN(C)C)c2)on1` (configuration not stated), the activity remaining, low choline was 77.1% (inactive) and the activity remaining, high choline came to 57.9%.

For the compound `COc1ccc(C(=O)N[C@H]2CC[C@H](O)CC2)cc1OC1CCN(C(C)C)CC1`, the activity remaining, low choline is 29.7% and the activity remaining, high choline turned out to be 101%.

Consider `COc1ccc(C(=O)NCc2cc(C(C)C)no2)cc1OCCCN(C)C`, for which the activity remaining, low choline was 67.3% (inactive) and the activity remaining, high choline came out at 59.6%.

For `COc1ccc(CNC(=O)c2ccc(OC)c(OC3CCN(C(C)C)CC3)c2)cc1OC`, the activity remaining, low choline was 52.7% (inactive) and the activity remaining, high choline came to 83.6%.

Take `COc1ccc(C(=O)NCCN2CCOC2=O)cc1OC1CCN(C(C)C)CC1`: the activity remaining, low choline was 41.8% and the activity remaining, high choline came out at 97.6%.

`CCCCOc1cc(C(=O)NCc2cc(C(C)C)no2)ccc1OC`: the activity remaining, low choline was 85.6% (inactive) and the activity remaining, high choline was found to be 88.8%.

For `COc1ccc(C(=O)NCC2OCCc3ccccc32)cc1OC1CCN(C(C)C)CC1` (configuration not stated), the activity remaining, low choline is 71.9% (inactive) and the activity remaining, high choline came to 67.1%.

For the compound `COc1ccc(C(=O)NCc2cnn(C)c2C)cc1OC1CCN(C(C)C)CC1`, the activity remaining, low choline is 33.1% and the activity remaining, high choline came to 57%.

Turning to `CCc1cc(CNC(=O)c2ccc(OC)c(OCCN3CCCC3)c2)on1`, the activity remaining, low choline is 59.3% (inactive) and the activity remaining, high choline was 71.4%.

For the compound `COc1ccc(C(=O)NCCN2CCCCC2=O)cc1OC1CCN(C(C)C)CC1`, the activity remaining, low choline is 80.3% (inactive) and the activity remaining, high choline stood at 84.5%.

Regarding `COc1ccc(C(=O)NCC(C)Oc2cccnc2)cc1OC1CCN(C(C)C)CC1` (configuration not stated), the activity remaining, low choline was 43.1% and the activity remaining, high choline was found to be 71.2%.

With `COc1ccc(C(=O)NCCCn2cccn2)cc1OC1CCN(C(C)C)CC1`, the activity remaining, low choline is 20.4% and the activity remaining, high choline was determined as 77.5%.

Regarding `CCc1cc(CNC(=O)c2ccc(OC)c(OC3CCCC3)c2)on1`, the activity remaining, low choline is 98% (inactive) and the activity remaining, high choline was 99.4%.

In the case of `CCc1cc(CNC(=O)c2ccc(OC)c(OC3CCCN(C)C3)c2)on1` (configuration not stated), the activity remaining, low choline is 56.5% (inactive) and the activity remaining, high choline came to 67.1%.

`COc1ccc(C(=O)NC2CCCCC2)cc1OC1CCN(C(C)C)CC1`: the activity remaining, low choline was 72.2% (inactive) and the activity remaining, high choline amounted to 78.8%.

With `CCc1cc(CNC(=O)c2ccc(OC)c(OCc3ccccn3)c2)on1`, the activity remaining, low choline was 90.2% (inactive) and the activity remaining, high choline was found to be 102%.

Turning to `CCc1cc(CNC(=O)c2ccc(OC)c(OCCN3CCCCC3)c2)on1`, the activity remaining, low choline is 22.7% and the activity remaining, high choline stood at 38.2%.

For `CCc1cc(CNC(=O)c2ccc(OC)c(OC3CCN(C(C)C)CC3)c2)on1`, the activity remaining, low choline is 92.9% (inactive) and the activity remaining, high choline is 71%.

Regarding `CCOc1cc(C(=O)NCc2cc(C(C)C)no2)ccc1OC`, the activity remaining, low choline was 93.9% (inactive) and the activity remaining, high choline came to 78.2%.

In the case of `CCc1cc(CNC(=O)c2ccc(OC)c(OC(=O)c3ccc(OC)c(O)c3)c2)on1`, the activity remaining, low choline is 92.3% (inactive) and the activity remaining, high choline amounted to 88.5%.

As to `COc1ccc(C(=O)NCCc2cnn(C)c2)cc1OC1CCN(C(C)C)CC1`, the activity remaining, low choline is 36.7% and the activity remaining, high choline was 88.3%.

Consider `CCOc1cc(C(=O)NCc2cc(CC)no2)ccc1OC`, for which the activity remaining, low choline was 86.4% (inactive) and the activity remaining, high choline came out at 87.1%.

In the case of `CCc1cc(CNC(=O)c2ccc(OC)c(OCC3CCC3)c2)on1`, the activity remaining, low choline was 91.1% (inactive) and the activity remaining, high choline amounted to 70.2%.

As to `COc1ccc(C(=O)NCc2cccc(C)c2)cc1OC1CCN(C(C)C)CC1`, the activity remaining, low choline is 29.4% and the activity remaining, high choline was 60.9%.

With `CCc1cc(CNC(=O)c2ccc(OC)c(OCCN3CCOCC3)c2)on1`, the activity remaining, low choline was 69.2% (inactive) and the activity remaining, high choline was found to be 78.9%.

For the compound `CCc1cc(CNC(=O)c2ccc(OC)c(O)c2)on1`, the activity remaining, low choline was 93.7% (inactive) and the activity remaining, high choline was determined as 90.1%.

Turning to `CCCCOc1cc(C(=O)NCc2cc(CC)no2)ccc1OC`, the activity remaining, low choline was 92.3% (inactive) and the activity remaining, high choline turned out to be 62.3%.

Turning to `COc1ccc(C(=O)N[C@H]2CCCCNC2=O)cc1OC1CCN(C(C)C)CC1`, the activity remaining, low choline is 13.1% and the activity remaining, high choline worked out at 73.4%.

As for `CCc1cc(CNC(=O)c2ccc(OC)c(OCc3ccccc3)c2)on1`, the activity remaining, low choline is 90% (inactive) and the activity remaining, high choline was determined as 107%.

In the case of `COc1ccc(C(=O)NCc2ccon2)cc1OC1CCN(C(C)C)CC1`, the activity remaining, low choline was 46% and the activity remaining, high choline worked out at 83.3%.

`COc1ccc(C(=O)NC(C)c2nccs2)cc1OC1CCN(C(C)C)CC1` (configuration not stated): the activity remaining, low choline was 34.1% and the activity remaining, high choline worked out at 72.1%.
